Measurements taken from patent US5225417A, “Opioid agonist compounds” (priority 1992, dated 1993).
pIC50: −log10 of the molar value. Structures can show the parent of a compound that is named as a salt. Where two headings read alike, the source gives them in different places.

How the values were obtained:
[1] = tested on: mice; experiment: PBQ Writhing Assay; assay type: in vivo, Charles River male albino mice; details: for ED50: Mus musculus, 0.5 h
Source text: The Writhing Assay is one of the most widely-used experimental procedures for measuring the analgesic activity of different narcotic and nonnarcotic analgesic agents, and involves the continuous, chemically-induced pain of visceral origin to an animal, such as a mouse or rat. [Gyires et al., Arch. int. Pharmacodyn, 267, 131-140 (1984); C. Vander Wende et al., Fed. Proc., 15, 494 (1956); Koster et al. Fed. Proc. 18 412 (1959); and Witken et al., J. Pharmacol. exp. Ther., 133, 400-408 (1961).] Chemicals which may be used to induce this pain include phenylbenzoquinone (PBQ) and acetic acid. As a result of the chemical irritation to the animal, a characteristic stretching and writhing of the animal (dorsiflexion of the animal's back, extension of its hindlimbs and the strong contraction of its abdominal musculature) will generally occur. […] Drugs which reduce the number of writhes of the animal appear to restore the normal nociceptive threshold of the animal.
Charles River male albino mice, weighing 20 to 30 grams were used in this assay.
Thirty minutes after subcutaneous or intragastric administration to ten mice of either 10 mg or 30 mg per kilogram of body weight of a compound of the present invention ("test compound"), […] of body weight of a 0.025% w/v solution of PBQ was injected intraperitoneally into each mouse. Ten mice which were given saline in place of a test compound of the invention were used as a control group.
Five minutes later, each mouse was individually placed into a glass beaker for observation, and the number of writhes occurring during the following ten-minute period was counted.
A test compound was considered to be "active" in this assay (to have produced analgesia in a mouse) if, after the administration of the compound to the mouse, the number of writhes elicited by a mouse injected with PBQ was equal to, or less than, one-half the median number of writhes recorded for the saline-treated control group of mice that day, as described by Taber in "Predictive Value of Analgesic Assays in Mice and Rats," Advances in Biochemical Psychopharmacology, 8, 191 (1974).
The standard initial screening doses of a test compound employed in this assay were 10 and/or 30 […] for both routes of administration.

[2] = molecular target: δ opioid receptor (Rattus norvegicus, UniProt P33533); experiment: Opiate Binding Assay, δ receptor (3[H]-DSLET displacement); details: for Mean IC50 μ/δ Ratio: ratio of mean IC50 values for μ and δ opioid receptors
[3] = molecular target: μ opioid receptor (Rattus norvegicus, UniProt P33535); experiment: Opiate Binding Assay, μ receptor (3[H]-DAMGO displacement)
[4] = tested on: mice or rats; experiment: Tail Flick Assay; assay type: in vivo
Source text: The "Tail Flick Assay" uses thermal pain of transient duration, and is a test in which the pain threshold of the mice or rats being analyzed has not been altered. It is useful for evaluating the ability of a compound or drug to increase the animal's pain threshold (i.e. prolong response latencies), rather than to restore normal thresholds.
The heat-induced response to the Tail Flick Assay is a reflex reaction mediated at the level of the spinal cord.
Opiate compounds having clinical efficacy as analgesics generally increase tail flick latencies. Thus, morphine and codeine are generally determined to be active in this test.
The Tail Flick Assay was performed generally in the manner described by G. Woolfe et al., "The Evaluation of the Analgesic Action of Pethidine Hydrochloride (Demerol)," J. Pharmacol. Exp. Ther., 80, 300, (1944), F. D'Amour et al., "A Method for Determining Loss of Pain Sensation," J. Pharmacol. Exp. Ther., 72, 74, 300-307 (1941), and E. Drower et al., "The Antinociceptive Effects of Prostaglandin Antagonists in the Rat," European Journal of Pharmacology, 133, 249-256 (1987).
Male Charles River albino mice and male Charles River Sprague-Dawley rats weighing 20 to 30 g and 200 to 250 g, respectively, was employed in this assay.
Tail flick response latencies (defined as the time that elapsed between the onset of a high intensity beam of light and the reflex removal of the mouse or rat's tail) was measured before (baseline) and again at fixed intervals after subcutaneous or intracerebro-ventricular administration of one of the compounds of the invention, or after the administration of saline (controls). The cut-off latencies established to prevent tissue damage in the animals are 12 seconds or 14 seconds in the mouse and rat, respectively, in the Tail Flick Assay. The significance of any increase in tail flick response latency is determined using analyses of variance.
One way analyses of variance were used to determine the significance of the effect of the compounds of the invention on response latencies.
"Activity" or "Inactivity" was determined at a particular concentration of the compound by a significant increase in tail flick latency above normal latencies.
The numbers in parentheses are calculated ED50 values.

[5] = sc, subcutaneous, mice, 30 min before PBQ, read-out: PBQ writhing assay ED50, S.C.
[6] = rat forebrain membranes, 3[H]-DAMGO 2.0 nM, 37° C., pH 7.4
[7] = read-out: Mean IC50 Value, δ, rat forebrain membranes, 3[H]-DSLET 1.0 nM, 37° C., pH 7.4

δ opioid receptor, sequence (P33533 whole entry): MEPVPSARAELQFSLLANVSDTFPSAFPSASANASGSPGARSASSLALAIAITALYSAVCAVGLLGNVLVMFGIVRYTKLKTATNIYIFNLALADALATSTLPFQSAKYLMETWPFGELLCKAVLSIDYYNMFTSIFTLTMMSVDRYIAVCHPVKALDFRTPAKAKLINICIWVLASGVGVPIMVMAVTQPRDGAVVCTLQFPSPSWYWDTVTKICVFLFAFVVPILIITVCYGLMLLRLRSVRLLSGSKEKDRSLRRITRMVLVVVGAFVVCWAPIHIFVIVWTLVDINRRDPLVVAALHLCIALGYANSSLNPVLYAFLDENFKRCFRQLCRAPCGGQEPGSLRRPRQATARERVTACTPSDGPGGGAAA
μ opioid receptor, sequence (P33535 whole entry): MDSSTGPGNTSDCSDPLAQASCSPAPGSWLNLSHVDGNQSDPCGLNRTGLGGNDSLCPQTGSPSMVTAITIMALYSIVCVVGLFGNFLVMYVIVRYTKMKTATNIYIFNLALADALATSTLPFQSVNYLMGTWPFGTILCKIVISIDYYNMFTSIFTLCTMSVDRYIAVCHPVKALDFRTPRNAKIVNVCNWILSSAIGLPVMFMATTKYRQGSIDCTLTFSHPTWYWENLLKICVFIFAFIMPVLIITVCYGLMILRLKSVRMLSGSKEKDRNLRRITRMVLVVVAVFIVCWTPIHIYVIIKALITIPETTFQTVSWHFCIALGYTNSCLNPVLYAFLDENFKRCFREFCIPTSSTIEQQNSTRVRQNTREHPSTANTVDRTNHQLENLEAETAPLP

Compound | pIC50 [3] | pIC50 [2] | Mean IC50 μ/δ Ratio [2] | also measured
CC(=O)Oc1ccc2c3c1O[C@H]1c4oc5ccccc5c4C[C@@]4(OC(C)=O)[C@@H](C2)N(C#N)CC[C@]314 (relative stereo) [Example I, 1,8aβ-Bis(acetyloxy)-5,6,8,8a,9,14bβ-hexahydro-4,8(R,α)-methano-4bS*-7H-bisbenzofuro [3,2-e:2',3'-g]isoquinoline-7-carbonitrile] | – | – | – | ED50 [1, 5]: 2.4 mg/kg; PBQ writhing assay ED50, I.G. ([1]; intragastric, mice, 30 min before PBQ): inactive; inhibition at 0.1 µM ([2]; read-out: Percent Displacement, δ at 100 nM): 14%
Oc1ccc2c3c1O[C@H]1c4oc5ccccc5c4C[C@@]4(O)[C@@H](C2)NCC[C@]314 (relative stereo) [Example II, 6,7,8,14bβ-Tetrahydro-4,8(R,α)-methano-4bS*-5H-bisbenzofuro[3,2-e:2',3'-g]isoquinoline-1,8aβ(9H)-diol] | 6.54 | 8.19 | 45 | Number of mice in 10 exhibiting inhibition of writhing, I.G. ([1]; intragastric, dose not stated in table (screening doses 10 and/or 30 mpk)): 4/10; Number of mice in 10 exhibiting inhibition of writhing, S.C. ([1]; subcutaneous, dose not stated in table (screening doses 10 and/or 30 mpk)): 4/10; Percent Displacement, μ ([3]; μ receptor, 3[H]-DAMGO 2.0 nM, test concentration not given): 2
CN1CC[C@]23c4c5ccc(O)c4O[C@H]2c2[nH]c4c(I)cccc4c2C[C@@]3(O)[C@H]1C5 (relative stereo) [Example XII, 5,6,7,8,14,14bβ-Hexahydro-13-iodo-7-methyl-4,8 (R,α)-methano-4bS*-benzofuro[2,3-a]pyrido[4,3-b]carbazole-1,8aβ(9H)-diol, monohydrochloride] | 7.00 | 8.02 | 10.6 | –
7-(3-Furanylmethyl)-5,6,7,8,14,14bβ-hexahydro-4,8(R,α)-methano-4bS*-benzofuro[2,3-a]pyrido [4,3-b]carbazole-1,8aβ(9H)-diol, hydrochloride [Example XIV] | – | – | – | Mean IC50 Value, μ [3, 6]: inactive; pIC50 [2, 7]: 7.50
Oc1ccc2c3c1O[C@H]1c4oc5ccccc5c4C[C@@]4(O)[C@@H](C2)N(Cc2ccccc2)CC[C@]314 (relative stereo) [Example XVI, 6,7,8,14bβ-Tetrahydro-7-(2-phenylmethyl)-4,8 (R,α)-methano-4bS*-5H-bisbenzofuro [3,2-e:2',3'-g]isoquinoline-1,8aβ(9H)-diol] | – | – | – | Mean IC50 Value, μ [3, 6]: inactive; inhibition at 0.05 µM ([2]; read-out: Percent Displacement, δ at 50 nM): 50%
Oc1ccc2c3c1O[C@H]1c4oc5ccccc5c4C[C@@]4(O)[C@@H](C2)N(Cc2ncc[nH]2)CC[C@]314 (relative stereo) [Example XV, 5,6,7,8,14,14bβ-Hexahydro-(1H-imidazol-2-ylmethyl)-4,8(R,α)-methano-4bS*-benzofuro[2,3-a]pyrido [4,3-b]carbazole-1,8aβ(9H)-diol, hydrochloride] | – | 7.10 | – | Mean IC50 Value, μ [3, 6]: inactive; Tail flick activity, intracerebroventricular ([4]; intracerebroventricular): ~ 10 nmoles; active dose in tail flick, intracerebroventricularly ([4]; intracerebroventricular): ca. 10 nmoles; Tail flick activity, subcutaneous (active at) ([4]; subcutaneous): inactive
CN1CC[C@]23c4c5ccc(O)c4O[C@H]2c2[nH]c4ccc(C(=O)O)cc4c2C[C@@]3(O)[C@H]1C5 (relative stereo) [Example V, 5,6,7,8,8a,9,14,14bβ-Octahydro-1,8aβ-dihydroxy-7-methyl-4,8(R,α)-methano-4bS*-benzofuro [2,3-a]pyrido [4,3-b]carbazole-11-carboxylic acid, monohydrochloride] | 6.09 | 6.18 | 1.2 | ED50 ([1]; po, intragastric, mice, 30 min before PBQ, read-out: PBQ writhing assay ED50, I.G.): 3.4 mg/kg; ED50 [1, 5]: 1.3 mg/kg
CC(C)=CCN1CC[C@]23c4c5ccc(O)c4O[C@H]2c2oc4ccccc4c2C[C@@]3(O)[C@H]1C5 (relative stereo) [Example III, 6,7,8,14bβ-tetrahydro-7-(3-methyl-2-butenyl)-4,8 (R,α)-methano-4bS*-5H-bisbenzofuro[3,2-e:2',3'-g]isoquinoline-1,aβ(9H)-diol, monohydrochloride] | 5.33 | 7.29 | 91 | –
CN1CC[C@]23c4c5ccc(O)c4O[C@H]2c2oc4ccccc4c2C[C@@]3(OCc2ccccc2)[C@H]1C5 (relative stereo) [Example X, 6,7,8,8a,9,14bβ-hexahydro-7-methyl-8aβ-(phenylmethoxy)-4,8(R,α)-methano-4bS*-5H-bisbenzofuro[3,2-e:2',3'-g]isoquinolin-1-ol, monohydrochloride] | 6.45 | 8.10 | 44 | –
O=C(O)CN1CC[C@]23c4c5ccc(O)c4O[C@H]2c2oc4ccccc4c2C[C@@]3(O)[C@H]1C5 (relative stereo) [Example VIII, 5,6,8,8a,9,14bβ-Hexahydro-1,8aβ-dihydroxy-4,8 (R,α)-methano-4bS*-7H-bisbenzofuro[3,2-e:2',3'-g]isoquinoline-7-acetic acid, hydrochloride] | 5.40 | 6.80 | 25 | –
OCc1ccc(CN2CC[C@]34c5c6ccc(O)c5O[C@H]3c3oc5ccccc5c3C[C@@]4(O)[C@H]2C6)o1 (relative stereo) [Example XIII, 5,6,7,8,14,14bβ-Hexahydro-7-[[5-(hydroxymethyl)-2-furanyl]methyl]-4,8(R,α)-methano-4b S*-benzofuro[2,3-a]pyrido[4,3-b]carbazole-1,8aβ(9H)-diol, monohydrochloride] | – | ~7.00 | – | Mean IC50 Value, μ [3, 6]: inactive
CCOC(=O)c1ccc2[nH]c3c(c2c1)C[C@@]1(O)[C@H]2Cc4ccc(O)c5c4[C@@]1(CCN2C)[C@H]3O5 (relative stereo) [Example VI, Ethyl 5,6,7,8,8a,9,14,14bβ-Octahydro1,8αP-dihydroxy-7-methyl-4,8(R,α)methano-4bS*-benzofuro [2,3-a]pyrido[4,3-b]carbazole-11-carboxylate, monohydrochloride] | – | – | 3.8 | pIC50 ([3]; read-out: Mean IC50 Value, μ, rat forebrain membranes, 3[H]-DAMGO 2.0 nM, 37° C., pH 7.4): 6.61; pIC50 [2, 7]: 7.19
Oc1ccc2c3c1O[C@H]1c4oc5ccccc5c4C[C@@]4(O)[C@@H](C2)N(CCc2ccccc2)CC[C@]314 (relative stereo) [Example VII, 6,7,8,14bβ-tetrahydro-7-(2-phenylethyl)-4,8(R,α)-methano-4bS*-5H-bisbenzofuro [3,2-e:2',3'-g]isoquinoline-1,8aβ(9H)-diol, hydrochloride] | – | 7.46 | – | inhibition at 1 µM ([3]; read-out: Percent Displacement, μ at 1 μM): 35%
CCOC(=O)CN1CC[C@]23c4c5ccc(O)c4O[C@H]2c2oc4ccccc4c2C[C@@]3(O)[C@H]1C5 (relative stereo) [Example IV, Ethyl 5,6,8,8a,9,14bβ-hexahydro-1,8aβ-dihydroxy-4,8(R,α)-methano-4bS*-7H-bisbenzofuro [3,2-e:2',3'-g]isoquinoline-7-acetate, hydrochloride] | < 5.00 | 7.93 | > 850 | –
